Laboratory results published in patent US7196198B2, “Benzoic acid derivatives, processes for the preparation thereof and pharmaceutical agents comprising the same as active ingredient” (Ono Pharmaceutical Co., Ltd., priority 2000, dated 2007).
Where a name gives a salt, the structure may show the parent alone.

Tests used:
EP4 [1] = molecular target: T1, EP4 (Mus musculus, UniProt P32240); assay: Binding assay using cell expressing the prostanoid receptor subtypes ([3H]-PGE2 competition, CHO membrane fraction); conditions: membrane fraction of CHO cell expressing mouse EP4, Ki=IC50/(1+([C]/Kd))
T1 construct: expressed in transfected cells; host or cells: CHO cells (membrane fraction)
T1 sequence (P32240 whole entry): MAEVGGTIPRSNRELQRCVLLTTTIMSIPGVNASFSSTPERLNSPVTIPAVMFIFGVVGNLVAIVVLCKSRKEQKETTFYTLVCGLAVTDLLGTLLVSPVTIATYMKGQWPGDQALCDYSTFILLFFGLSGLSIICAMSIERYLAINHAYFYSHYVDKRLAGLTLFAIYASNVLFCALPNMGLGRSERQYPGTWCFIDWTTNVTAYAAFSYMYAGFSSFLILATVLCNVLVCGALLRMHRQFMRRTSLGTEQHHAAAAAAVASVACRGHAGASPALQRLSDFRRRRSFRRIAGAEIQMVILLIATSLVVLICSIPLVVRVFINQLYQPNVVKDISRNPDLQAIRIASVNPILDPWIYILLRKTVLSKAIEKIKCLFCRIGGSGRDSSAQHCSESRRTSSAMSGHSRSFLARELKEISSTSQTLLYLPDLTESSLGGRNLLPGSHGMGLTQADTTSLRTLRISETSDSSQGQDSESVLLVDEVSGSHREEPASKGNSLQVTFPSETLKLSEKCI
Description: (i) Binding Assay Using Cell Expressing The Prostanoid Receptor Subtypes
The preparation of membrane fraction was carried out according to the method of Sugimoto et al [J. Biol. Chem. 267, 6463–6466 (1992)], using CHO cell expressing prostanoid receptor subtype (mouse EP1, EP2, EP3, EP4 and human IP).
The standard assay mixture containing membrane fraction (0.5 mg/mL), [^3H]-PGE2 in a final volume of 200 μl was incubated for 1 hour at room temperature. The reaction was terminated by addition of 3 mL of ice-cold buffer. The mixture was rapidly filtered through a glass filter (GF/B) under reduced pressure. The radioactivity associated with the filter was measured by liquid scintillation counter.
Kd and Bmax values were determined from Scatchard plots [Ann. N.Y. Acad. Sci. 51, 660(1949)]. Non-specific binding was calculated as the amount bound in the presence of an excess (2.5 μM) of unlabeled PGE2. In the experiment for competition of specific [^3H]-PGE2 binding by the compounds of the present invention, [^3H]-PGE2 was added at a concentration of […] and the compound of the present invention was added at various concentrations. The following buffer was used in all reactions. • Buffer: 10 mM potassium phosphate (pH 6.0), 1 mM EDTA, 10 mM MgCl2, 0.1 M NaCl. • The dissociation constant (Ki) (μM) of each compound was calculated by the following equation. Ki=IC50/(1+([C]/Kd))

EP4 [2] = molecular target: T1, EP4; assay: EP4 antagonizing activity assay using the cell expressing the prostanoid receptor subtypes (cAMP production in CHO cells); format: cell-based; conditions: inhibition of cAMP production with 100 nM PGE2 as agonist; CHO cell expressing receptor subtype
Description: (ii) EP4 Antagonizing Activity Assay Using the Cell Expressing the Prostanoid Receptor Subtypes
The preparation of CHO cell expressing prostanoid receptor subtype was carried out according to the method of Nishigaki et al [FEBS lett., 364, 339–341(1995)]. The cells were cultured in 24-well microplates (10^5 cells/well) for two days before experiments. After washing each well with 500 μL of MEM (minimum essential medium), thereto was added 450 μL of assay medium (MEM containing 1 mmol/L IBMX, 1% BSA), and the mixture was incubated for 10 minutes at 37° C. Then PGE2 alone or a combination with a test compound (50 μL) were added, and the mixture was incubated for 10 minutes at 37° C. And reaction was terminated by addition of ice-cold TCA (10% W/V, 500 μL). This reaction mixture was freezed once (−80° C.) and thawed, and cells were harvested using a scraper. After centrifugation (13,000 r.p.m., for 3 minutes), cAMP content was measured using cAMP assay kit. That is, the supernatant (125 μL) was diluted with 500 μL of [^125I]-cAMP assay kit buffer (Amersham), and mixed with 0.5 mol/L tri-n-octylamine/chloroform solution (1 mL) was mixed. After removal of TCA from chloroform layer, cAMP content in the aqueous layer was quantified according to the method of kit manuals. […]

Row | Ki (EP4 [1]) [nM] | IC50 (EP4 [2]) [nM] | SMILES
1 | 10.5 |  | CC(C(=O)Nc1ccccc1Cc1ccccc1C(=O)O)c1ccc(OCc2ccccc2)cc1 (stereo not shown) [Example 4(1), 2-[2-[2-(4-benzyloxyphenyl)propanoylamino]phenylmethyl]benzoic acid]
2 | 6.5 |  | CC(C(=O)Nc1ccncc1Cc1ccccc1C(=O)O)c1cccc2ccccc12 (stereo not shown) [Example 2(15), 2-[4-[2-(1-naphthyl)propanoylamino]pyridin-3-ylmethyl]benzoic acid monohydrochloride]
3 | 2.7 | 10 | CC(C(=O)Nc1ccccc1Cc1ccccc1C(=O)O)c1cccc2ccccc12 (stereo not shown) [Example 2(1), 2-[2-[2-(1-naphthyl)propanoylamino]phenylmethyl]benzoic acid]
